# What was measured:
# [1] = system: KATP channel; assay: Binding KATP channel (aa); design: species or system rat
# Description: (§1) Radioligand binding assay methods utilized to measure the activity of compounds of the invention will be familiar to those skilled in the art. In each assay case, the assay components such as, for example, the cell-type, ligand, reference compound and the like, will be familiar to practitioners of such an assay.
# (§2) Analysis and Expression of Results: Compounds of the invention were tested in the biochemical assays and percent inhibition of specific binding was determined. The specific ligand binding to the receptors is defined as the difference between the total binding and the nonspecific binding determined in the presence of an excess of unlabelled ligand. The results are expressed as a percent inhibition of control specific binding (100−((measured specific binding/control specific binding)×100)) obtained in the presence of test compounds.
# [2] = molecular target: T1, Endothelin ETB (h) (Homo sapiens, UniProt P24530); assay: Binding ETB (h) (ag); conditions: read-out: % Inhibition of Control Specific Binding @ 10 μM
# T1 construct: expressed in transfected cells; host or cells: CHO cells
# T1 sequence (P24530 27-442): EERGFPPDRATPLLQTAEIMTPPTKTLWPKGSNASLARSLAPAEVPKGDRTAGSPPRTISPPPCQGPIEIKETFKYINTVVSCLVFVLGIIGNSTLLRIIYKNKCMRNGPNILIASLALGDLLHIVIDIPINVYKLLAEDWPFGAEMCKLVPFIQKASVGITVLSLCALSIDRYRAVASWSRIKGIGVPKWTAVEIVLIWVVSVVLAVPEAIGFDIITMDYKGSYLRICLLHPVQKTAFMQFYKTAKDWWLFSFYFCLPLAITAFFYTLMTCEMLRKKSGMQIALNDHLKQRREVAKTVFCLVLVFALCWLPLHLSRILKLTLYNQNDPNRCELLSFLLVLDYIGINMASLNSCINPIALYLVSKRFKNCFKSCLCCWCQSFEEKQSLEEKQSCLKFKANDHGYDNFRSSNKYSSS
# Description: as §1, §2
# [3] = molecular target: T2, Androgen Receptor (Homo sapiens, UniProt P10275); assay: Androgen Receptor Nuclear Translocation Assay; type: cell-based; conditions: for EC50: agonist mode, PathHunter NHRPro cells, 5 h, read-out: AR Nuclear Translocation Assay Agonist Mode EC50; for IC50: antagonist mode, agonist challenge at EC80, read-out: AR Nuclear Translocation Assay Antagonist Mode IC50
# T2 construct: expressed in transfected cells; host or cells: PathHunter NHRPro cell lines
# T2 sequence (P10275 1-920): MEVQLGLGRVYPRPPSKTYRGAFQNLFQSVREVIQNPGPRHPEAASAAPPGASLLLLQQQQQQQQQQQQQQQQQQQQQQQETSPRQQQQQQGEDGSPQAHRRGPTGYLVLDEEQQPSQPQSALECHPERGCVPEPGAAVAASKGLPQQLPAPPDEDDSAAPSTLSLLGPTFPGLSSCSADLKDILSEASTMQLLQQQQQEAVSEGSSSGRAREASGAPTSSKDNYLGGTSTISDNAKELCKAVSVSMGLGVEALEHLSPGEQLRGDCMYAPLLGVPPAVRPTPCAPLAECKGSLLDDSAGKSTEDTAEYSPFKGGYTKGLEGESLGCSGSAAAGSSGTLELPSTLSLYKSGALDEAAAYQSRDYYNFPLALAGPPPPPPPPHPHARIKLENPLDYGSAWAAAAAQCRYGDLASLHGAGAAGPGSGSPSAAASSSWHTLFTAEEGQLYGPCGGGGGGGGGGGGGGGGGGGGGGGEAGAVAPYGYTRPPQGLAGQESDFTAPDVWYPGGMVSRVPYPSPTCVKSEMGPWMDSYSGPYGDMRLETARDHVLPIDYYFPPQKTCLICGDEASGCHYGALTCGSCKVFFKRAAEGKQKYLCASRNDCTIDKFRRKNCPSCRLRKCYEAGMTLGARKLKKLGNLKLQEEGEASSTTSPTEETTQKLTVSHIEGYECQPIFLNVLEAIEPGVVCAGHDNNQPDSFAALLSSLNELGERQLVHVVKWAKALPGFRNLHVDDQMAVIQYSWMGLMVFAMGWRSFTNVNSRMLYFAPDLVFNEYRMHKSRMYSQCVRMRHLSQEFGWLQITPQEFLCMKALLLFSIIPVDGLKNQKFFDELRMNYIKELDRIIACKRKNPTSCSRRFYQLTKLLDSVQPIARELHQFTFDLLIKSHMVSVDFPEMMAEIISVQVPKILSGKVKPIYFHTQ
# Description: Once it was established that the cells were healthy and growing normally, cells were transferred from flasks using trypsin-free cell dissociation buffer and seeded into white walled clear bottom 384-well microplates for compound profiling. For profiling, cells were seeded at a density of 10,000 cells per well in a total volume of 50 μL and were allowed to adhere and recover overnight prior to compound addition. Media contained charcoal-dextran filtered serum to reduce the level of hormones present.
# Agonist Format: Intermediate dilution of compound stocks were generated such that 5.5 μL of 10X compound could be added to each well with a final DMSO concentration of 1% of total volume. For profiling compound in agonist mode, the cells were incubated in the presence of compound at 37° C. for 5 h.
# Antagonist Format: Agonist dose curves were performed to determine the EC80 value for the following antagonist testing with compounds. 5.5 μL of 10× agonist was added to each well with an equal concentration of vehicle present. EC80 agonist concentration was determined directly from agonist dose curve. For antagonist determination, cells were pre-incubated with antagonist followed by agonist challenge at the EC80 concentration: 5.5 μL of 10× compound added to cells and incubated at 37° C. for 1 h; 5.5 μL of 11× EC80 agonist added to cells and incubated at 37° C. for 5 h.
# Signal Detection: After appropriate compound incubation, assay signal was generated through a single addition of 30 μL (50% v/v) of PathHunter Detection reagent cocktail for agonist and antagonist assays respectively followed by 1 h incubation at room temperature. Microplates were read following signal generation with a PerkinElmer ViewLux™ instrument for chemiluminescent signal detection.
# Data Analysis: Dose curves in the presence and absence of compound were plotted using GraphPad Prism.
# [4] = system: COMT; assay: Enzyme assay COMT; type: biochemical, porcine
# Description: The enzyme assays provided below will be familiar to those skilled in the art.
# Analysis and Expression of Results: The results are expressed as a percent of control specific activity ((measured specific activity/control specific activity)×100) obtained in the presence of the test compounds.
smiles,measurement,setting,value
"CC1(C)C(=O)N(c2ccc(C#N)c(C(F)(F)F)c2)C(=S)N1c1ccc(C(=O)O)c(F)c1 [(MI), 4-(3-(4-cyano-3-(trifluoromethyl)phenyl)-5,5-dimethyl-4-oxo-2-thioxoimidazolidin-1-yl)-2-fluorobenzoic acid]",% Inhibition of Control Specific Binding @ 10 μM,[1],17%
same,inhibition at 10 µM,[2],-7%
same,EC50,[3],> 60 µM
same,IC50,[3],> 60 µM
same,% Inhibition of Control Values @ 10 μM,[4],1%
"CC1(C)C(=O)N(c2ccc(C#N)c(C(F)(F)F)c2)C(=S)N1c1ccc(C(N)=O)c(F)c1 [(MII), 4-(3-(4-Cyano-3-(trifluoromethyl)phenyl)-5,5-dimethyl-4-oxo-2-thioxoimidazolidin-1-yl)-2-fluorobenzamide]",% Inhibition of Control Specific Binding @ 10 μM,[1],24%
same,inhibition at 10 µM,[2],-4%
same,EC50,[3],> 60 µM
same,IC50,[3],3.2 µM
same,% Inhibition of Control Values @ 10 μM,[4],−1%
"CC1(C)C(=O)N(c2ccc(C#N)c(C(F)(F)F)c2)C(=O)N1c1ccc(C(N)=O)c(F)c1 [(MIII), 4-(3-(4-cyano-3-(trifluoromethyl)phenyl)-5,5-dimethyl-2,4-dioxoimidazolidin-1-yl)-2-fluorobenzamide]",% Inhibition of Control Specific Binding @ 10 μM,[1],7%
same,inhibition at 10 µM,[2],0%
same,EC50,[3],> 60 µM
same,IC50,[3],16.2 µM
same,% Inhibition of Control Values @ 10 μM,[4],−1%
"CNC(=O)c1ccc(N2C(=O)N(c3ccc(C#N)c(C(F)(F)F)c3)C(=O)C2(C)C)cc1F [(MIV), 4-(3-(4-cyano-3-(trifluoromethyl)phenyl)-5,5-dimethyl-2,4-dioxoimidazolidin-1-yl)-2-fluoro-N-methylbenzamide]",% Inhibition of Control Specific Binding @ 10 μM,[1],7%
same,inhibition at 10 µM,[2],-3%
same,EC50,[3],> 60 µM
same,IC50,[3],11.6 µM
same,% Inhibition of Control Values @ 10 μM,[4],0%

# Source: US8524755B2 (priority 2009, dated 2013)
